Drawing on US6653305B2, “Bicyclic heterocycles, pharmaceutical compositions containing them, their use, and processes for preparing them” (Boehringer Ingelheim Pharma KG, priority 2000, dated 2003), this text covers melting point and IC50 for seven compounds.

For one series, the target named is T1, human EGF-R (Homo sapiens, UniProt P00533).
T1 construct: expressed in transfected cells; host or cells: F/L-HERc cells (murine IL-3-dependent FDC-P1 line transduced with LXSN retroviral vector carrying human EGF-R cDNA; packaging line GP+E86)
As to the kind of experiment: Inhibition of EGF-dependent proliferation of F/L-HERc cells (Cell Titer 96 assay). To be noted: F/L-HERc cells (murine IL-3-dependent line expressing human EGF-R), stimulated with EGF 20 ng/ml, 48 hours at 37° C. Type of series: cell-based. The text has this:
A cell line of murine origin dependent on interleukin-3-(IL-3) which was genetically modified to express functional human EGF-R was used here. The proliferation of these cells known as F/L-HERc can therefore be stimulated either by murine IL-3 or by EGF (cf. T. von Rüden et al. in EMBO J. 7, 2749-2756 (1988) and J. H. Pierce et al. in Science 239, 628-631 (1988)).
The starting material used for the F/L-HERc cells was the cell line FDC-P1, the production of which has been described by T. M. Dexter et al. in J. Exp. Med. 152, 1036-1047 (1980). Alternatively, however, other growth-factor-dependent cells may also be used (cf., for example, J. H. Pierce et al. in Science 239, 628-631 (1988), H. Shibuya et al. in Cell 70, 57-67 (1992) and W. S. Alexander et al. in EMBO J. 10, 3683-3691 (1991)). For expressing the human EGF-R cDNA (cf. A. Ullrich et al. in Nature 309, 418-425 (1984)) recombinant retroviruses were used as described by T. von Rüden et al., EMBO J. 7, 2749-2756 (1988), except that the retroviral vector LXSN (cf. A. D. Miller et al. in BioTechniques 7, 980-990 (1989)) was used for the expression of the EGF-R cDNA and the line GP+E86 (cf. D. Markowitz et al. in J. Virol. 62, 1120-1124 (1988)) was used as the packaging cell.
The test was performed as follows:
F/L-HERc cells were cultivated in RPMI/1640 medium (Bio Whittaker), supplemented with 10% fetal calf serum (FCS, Boehringer Mannheim), 2 mM glutamine (Bio Whittaker), standard antibiotics and 20 ng/ml of human EGF (Promega), at 37° C. and 5% CO2. In order to investigate the inhibitory activity of the compounds according to the invention, 1.5×10^4 cells per well were cultivated in triplicate in 96-well dishes in the above medium (200 μl), the cell proliferation being stimulated with either EGF (20 ng/ml) or murine IL-3. […]
In order to determine the inhibitory activity of the compounds according to the invention the relative cell number was measured in O.D. units using the Cell Titer 96™ Aqueous Non-Radioactive Cell Proliferation Assay (Promega). […]

T1 sequence (P00533 25-1210): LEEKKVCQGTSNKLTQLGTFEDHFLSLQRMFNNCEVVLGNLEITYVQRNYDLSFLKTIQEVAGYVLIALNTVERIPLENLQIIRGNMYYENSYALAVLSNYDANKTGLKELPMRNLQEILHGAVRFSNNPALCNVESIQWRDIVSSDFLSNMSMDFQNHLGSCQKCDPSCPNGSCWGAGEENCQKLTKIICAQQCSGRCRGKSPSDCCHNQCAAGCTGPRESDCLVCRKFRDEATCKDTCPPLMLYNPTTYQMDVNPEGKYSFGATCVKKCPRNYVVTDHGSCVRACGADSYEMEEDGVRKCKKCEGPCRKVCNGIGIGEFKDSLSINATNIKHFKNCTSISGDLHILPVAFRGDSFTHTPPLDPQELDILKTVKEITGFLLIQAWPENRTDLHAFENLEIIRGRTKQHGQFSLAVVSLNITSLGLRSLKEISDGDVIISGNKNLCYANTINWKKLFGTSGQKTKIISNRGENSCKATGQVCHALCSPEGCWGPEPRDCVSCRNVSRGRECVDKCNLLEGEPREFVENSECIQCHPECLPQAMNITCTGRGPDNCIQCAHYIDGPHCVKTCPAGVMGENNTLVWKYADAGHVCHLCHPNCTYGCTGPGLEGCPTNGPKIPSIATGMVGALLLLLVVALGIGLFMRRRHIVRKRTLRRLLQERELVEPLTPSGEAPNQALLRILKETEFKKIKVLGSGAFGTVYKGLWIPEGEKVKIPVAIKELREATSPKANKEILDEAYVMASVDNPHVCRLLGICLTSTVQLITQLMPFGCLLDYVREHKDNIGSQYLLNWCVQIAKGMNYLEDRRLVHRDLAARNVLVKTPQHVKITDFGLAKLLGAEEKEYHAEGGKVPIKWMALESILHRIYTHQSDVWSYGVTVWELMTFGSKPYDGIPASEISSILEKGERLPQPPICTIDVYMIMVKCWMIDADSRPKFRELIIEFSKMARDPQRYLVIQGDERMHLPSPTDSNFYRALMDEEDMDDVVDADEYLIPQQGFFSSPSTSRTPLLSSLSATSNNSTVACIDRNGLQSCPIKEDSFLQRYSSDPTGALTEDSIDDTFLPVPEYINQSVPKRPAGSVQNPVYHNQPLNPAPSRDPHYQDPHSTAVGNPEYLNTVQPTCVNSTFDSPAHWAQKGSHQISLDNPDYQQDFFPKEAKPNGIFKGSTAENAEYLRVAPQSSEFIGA

`CN(CC=CC(=O)Nc1cc2c(Nc3ccc(F)c(Cl)c3)ncnc2cc1OCC1CC1)CC1OCCO1` [1(2), 4-[(3-chloro-4-fluorophenyl)amino]-6-[(4-{N-[(1,3-dioxolan-2-yl)methyl]-N-methylamino}-1-oxo-2-buten-1-yl)amino]-7-cyclopropylmethoxyquinazoline] displayed a melting point of 121 °C. The compound further yielded an IC50 at human EGF-R of 0.02 nM. As for `C[C@@H]1CN(CC=CC(=O)Nc2cc3c(Nc4ccc(F)c(Cl)c4)ncnc3cc2OCC2CC2)CC(=O)O1` [2(1), 4-[(3-chloro-4-fluorophenyl)amino]-6-{[4-((R)-6-methyl-2-oxomorpholin-4-yl)-1-oxo-2-buten-1-yl]amino}-7-cyclopropylmethoxyquinazoline], the IC50 against human EGF-R turned out to be 9 nM. `C[C@H]1C(=O)OCCN1CC=CC(=O)Nc1cc2c(Nc3ccc(F)c(Cl)c3)ncnc2cc1OCC1CC1` [Example 2(2), 4-[(3-chloro-4-fluorophenyl)amino]-6-{[4-((S)-3-methyl-2-oxomorpholin-4-yl)-1-oxo-2-buten-1-yl]amino}-7-cyclopropylmethoxyquinazoline] had a melting point of 182 °C. Compound `C[C@@H]1CN(CC=CC(=O)Nc2cc3c(Nc4ccc(F)c(Cl)c4)ncnc3cc2O[C@@H]2CCOC2)CC(=O)O1` [Example 2(7), 4-[(3-chloro-4-fluorophenyl)amino]-6-{[4-((R)-6-methyl-2-oxomorpholin-4-yl)-1-oxo-2-buten-1-yl]amino}-7-[(R)-(tetrahydrofuran-3-yl)oxy]quinazoline] returned a melting point of 230 °C. As to `C[C@@H]1CN(CC=CC(=O)Nc2cc3c(Nc4ccc(F)c(Cl)c4)ncnc3cc2OCC2CCOCC2)CC(=O)O1` [Example 2(19), 4-[(3-chloro-4-fluorophenyl)amino]-6-{[4-((R)-6-methyl-2-oxomorpholin-4-yl)-1-oxo-2-buten-1-yl]amino}-7-[(tetrahydropyran-4-yl)methoxy]quinazoline], the melting point is 196 °C.

`C[C@H]1CN(CC=CC(=O)Nc2cc3c(Nc4ccc(F)c(Cl)c4)ncnc3cc2OCC2CCOCC2)CC(=O)O1` [Example 2(21), 4-[(3-chloro-4-fluorophenyl)amino]-6-{[4-((S)-6-methyl-2-oxomorpholin-4-yl)-1-oxo-2-buten-1-yl]amino}-7-[(tetrahydropyran-4-yl)methoxy]quinazoline] registered a melting point of 196 to 199 °C. Regarding `C[C@H]1CN(CC=CC(=O)Nc2cc3c(Nc4ccc(F)c(Cl)c4)ncnc3cc2OCC2CC2)CC(=O)O1` [Example 2, 4-[(3-chloro-4-fluorophenyl)amino]-6-{[4-((S)-6-methyl-2-oxomorpholin-4-yl)-1-oxo-2-buten-1-yl]amino}-7-cyclopropylmethoxyguinazoline], on human EGF-R, half-maximal inhibition (IC50) was put at 15 nM.

Broadly, the melting point is the temperature, or range, at which the solid turns liquid. The term IC50 denotes the concentration that gives 50% inhibition. A higher IC50 goes with lower potency.
